According to paper PMC11589570, “Critical assessment of LC3/GABARAP ligands used for degrader development and ligandability of LC3/GABARAP binding pockets” (Nature Communications, 2024):
Where two headings read alike, the source gives them in different places.

Target: GABARAPL2 (Homo sapiens, UniProt P60520)
Details: GABARAPL2:ligand molar ratio 1:2

Chain of GABARAPL2 (P60520 whole entry): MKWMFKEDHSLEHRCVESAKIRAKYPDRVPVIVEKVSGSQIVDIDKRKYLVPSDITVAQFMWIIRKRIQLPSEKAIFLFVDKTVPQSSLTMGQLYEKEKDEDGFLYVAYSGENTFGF

## O=c1cc(-c2ccccc2)c2c(O)cc(O)cc2o1 [compound 2]
Residue A19
  CSP: 0.010 ppm
Residue A23
  CSP: 0.008 ppm
Residue A58
  CSP: 0.00237 ppm
Residue A108
  CSP: 0.00221 ppm
Residue C15
  CSP: 0.005 ppm
Residue D45
  CSP: 0.004 ppm
Residue D54
  CSP: 0.006 ppm
Residue D81
  CSP: 0.00283 ppm
Residue D100
  CSP: 0.00367 ppm
Residue D102
  CSP: 0.009 ppm
Residue E12
  CSP: 0.00212 ppm
Residue E17
  CSP: 0.006 ppm
Residue E34
  CSP: 0.010 ppm
Residue E73
  CSP: 0.00212 ppm
Residue E96
  CSP: 0.004 ppm
Residue E112
  CSP: 0.002 ppm
Residue F5, estimated
  CSP: 0.005 ppm
Residue F60
  CSP: 0.005 ppm
Residue F77
  CSP: 0.00281 ppm
Residue F104
  CSP: 0.016 ppm
Residue F115
  CSP: 0.009 ppm
Residue G38
  CSP: 0.012 ppm
Residue G103
  CSP: 0.005 ppm
Residue G111
  CSP: 0.008 ppm
Residue H9
  CSP: 0.016 ppm
Residue I21
  CSP: 0.005 ppm
Residue I32
  CSP: 0.005 ppm
Residue I41
  CSP: 0.007 ppm
Residue I44
  CSP: 0.002 ppm
Residue I55
  CSP: 0.00171 ppm
Residue I63
  CSP: 0.003 ppm
Residue I64
  CSP: 0.006 ppm
Residue K2
  CSP: 0.005 ppm
Residue K20
  CSP: 0.009 ppm
Residue K24
  CSP: 0.005 ppm
Residue K35
  CSP: 0.007 ppm
Residue K46, estimated
  CSP: 0.005 ppm
Residue K48
  CSP: 0.007 ppm
Residue K66
  CSP: 0.00316 ppm
Residue K74
  CSP: 0.00148 ppm
Residue K82, estimated
  CSP: 0.005 ppm
Residue K99
  CSP: 0.00444 ppm
Residue L11
  CSP: 0.00212 ppm
Residue L50
  CSP: 0.031 ppm
Residue L70
  CSP: 0.00283 ppm
Residue L78
  CSP: 0.0017 ppm
Residue L94
  CSP: 0.007 ppm
Residue L105
  CSP: 0.00636 ppm
Residue M1
  CSP: 0.014 ppm
Residue M4, estimated
  CSP: 0.005 ppm
Residue M61
  CSP: 0.00474 ppm
Residue M91
  CSP: 0.005 ppm
Residue P26, estimated
  CSP: 0.005 ppm
Residue P30, estimated
  CSP: 0.010 ppm
Residue P52, estimated
  CSP: 0.005 ppm
Residue P71, estimated
  CSP: 0.005 ppm
Residue P85, estimated
  CSP: 0.005 ppm
Residue Q40
  CSP: 0.0017 ppm
Residue Q59
  CSP: 0.002 ppm
Residue R14
  CSP: 0.0095 ppm
Residue R28
  CSP: 0.00851 ppm
Residue R47, estimated
  CSP: 0.005 ppm
Residue R65
  CSP: 0.0019 ppm
Residue R67
  CSP: 0.004 ppm
Residue S10
  CSP: 0.013 ppm
Residue S18
  CSP: 0.002 ppm
Residue S37
  CSP: 0.0065 ppm
Residue S39
  CSP: 0.00356 ppm
Residue S53
  CSP: 0.005 ppm
Residue S88
  CSP: 0.00122 ppm
Residue S110
  CSP: 0.00122 ppm
Residue T83
  CSP: 0.00251 ppm
Residue T114
  CSP: 0.00122 ppm
Residue V29
  CSP: 0.0057 ppm
Residue V31
  CSP: 0.025 ppm
Residue V36
  CSP: 0.00316 ppm
Residue V42
  CSP: 0.006 ppm
Residue V51
  CSP: 0.009 ppm
Residue V80
  CSP: 0.008 ppm
Residue V84
  CSP: 0.00228 ppm
Residue V107
  CSP: 0.006 ppm
Residue W3
  CSP: 0.006 ppm
Residue Y49
  CSP: 0.033 ppm
Residue Y95
  CSP: 0.0022 ppm
Residue Y106
  CSP: 0.007 ppm
Residue Y109
  CSP: 0.007 ppm
